Laboratory results from ChEMBL document CHEMBL2040731, “Synthesis and anti-HIV activity of lupane and olean-18-ene derivatives. Absolute configuration of 19,20-epoxylupanes by VCD” (J Nat Prod, 2012).
The source made the active and inactive calls. No cut-off for these calls is given here.

Columns and labels:
[1] = tested on: HeLa; test: Inhibition of X4-tropic HIV1 envelope glycoprotein-mediated cell-cell fusion between viral envelope expressing human virus-infected HeLa ADA cells to human HeLa P5 cells at 5 uM after 16 hrs by beta-galactosidase reporter gene assay using chemiluminescence method; assay type: cell-based; settings: Human immunodeficiency virus 1
[2] = tested on: HeLa; test: Inhibition of R5-tropic HIV1 envelope glycoprotein-mediated cell-cell fusion between viral envelope expressing human virus-infected HeLa ADA cells to human HeLa P5 cells at 5 uM after 16 hrs by beta-galactosidase reporter gene assay using chemiluminescence method; assay type: cell-based; settings: Human immunodeficiency virus 1

Compound: C=C(C)[C@@H]1CC[C@]2(C)CC[C@]3(C)[C@H](CC[C@@H]4[C@@]5(C)CC/C(=N\O)C(C)(C)[C@@H]5CC[C@]43C)[C@@H]12
- inhibition [1]: 23%
- inhibition [2]: 7%

Compound: CC1(C)C=C2[C@H]3CC[C@@H]4[C@@]5(C)CC[C@H](O)C(C)(C)[C@@H]5CC[C@@]4(C)[C@]3(C)CC[C@@]2(C)CC1
- inhibition [1]: inactive
- inhibition [2]: inactive

Compound: C=C(C)[C@@H]1CC[C@]2(C)CC[C@]3(C)[C@H](CC[C@@H]4[C@@]5(C)CCC(=O)C(C)(C)[C@@H]5CC[C@]43C)[C@@H]12
- inhibition [1]: inactive
- inhibition [2]: inactive

Compound: C=C(C)[C@@H]1CC[C@]2(C)CC[C@]3(C)[C@H](CC[C@@H]4[C@@]5(C)CC[C@H](OC(C)=O)C(C)(C)[C@@H]5CC[C@]43C)[C@@H]12
- inhibition [1]: 15%
- inhibition [2]: 31%

Compound: C=C(C=O)[C@@H]1CC[C@]2(C)CC[C@]3(C)[C@H](CC[C@@H]4[C@@]5(C)CC[C@H](O)C(C)(C)[C@@H]5CC[C@]43C)[C@@H]12
- inhibition [1]: inactive
- inhibition [2]: inactive

Compound: C=C(C)[C@@H]1CC[C@]2(CO)CC[C@]3(C)[C@H](CC[C@@H]4[C@@]5(C)CC[C@H](O)C(C)(C)[C@@H]5CC[C@]43C)[C@@H]12
- inhibition [1]: 34%
- inhibition [2]: 17%

Compound: C=C(C=O)[C@@H]1CC[C@]2(C)CC[C@]3(C)[C@H](CC[C@@H]4[C@@]5(C)CC[C@H](OC(C)=O)C(C)(C)[C@@H]5CC[C@]43C)[C@@H]12
- inhibition [1]: 6%
- inhibition [2]: 41%

Compound: C=C(C=O)[C@@H]1CC[C@]2(C)CC[C@]3(C)[C@H](CC[C@@H]4[C@@]5(C)C=CC(=O)C(C)(C)[C@@H]5CC[C@]43C)[C@@H]12
- inhibition [1]: 44%
- inhibition [2]: 28%

Compound: C=C(C=O)[C@@H]1CC[C@]2(CO)CC[C@]3(C)[C@H](CC[C@@H]4[C@@]5(C)CC[C@H](O)C(C)(C)[C@@H]5CC[C@]43C)[C@@H]12
- inhibition [1]: 10%
- inhibition [2]: 26%

Compound: CC(=O)O[C@H]1CC[C@]2(C)[C@H]3CC[C@@H]4[C@]56O[C@H]5C(C)(C)CC[C@]6(C)CC[C@@]4(C)[C@]3(C)CC[C@H]2C1(C)C
- inhibition [1]: inactive
- inhibition [2]: inactive

Compound: C=C(C)[C@@H]1CC[C@]2(C)CC[C@]3(C)[C@H](CC[C@@H]4[C@@]5(C)CC[C@H](O)C(C)(C)[C@@H]5CC[C@]43C)[C@@H]12
- inhibition [1]: inactive
- inhibition [2]: inactive

Compound: CC(=O)O[C@H]1CC[C@]2(C)[C@H]3CC[C@@H]4[C@H]5[C@H]([C@@]6(C)CO6)CC[C@]5(C)CC[C@@]4(C)[C@]3(C)CC[C@H]2C1(C)C
- inhibition [1]: 6%
- inhibition [2]: 26%
